A short description of data set [1]: Effective permeability by PAMPA method. The data set is classed as ADME. The settings on record: read-out: Peff. For orientation: PAMPA measures passive passage across an artificial lipid membrane.
Data set [2] in a line: Oral bioavailability in Beagle Marshall dog at 1 mg/kg administered as single dose. The class given is ADME, organism-based, Canis lupus familiaris. The note with it: in vivo.
A short description of data set [3]: Oral bioavailability in IGS rat at 3 mg/kg administered as single dose. The class given is ADME, organism-based. The settings on record: in vivo.
For data set [4], the system named is Rattus norvegicus. Nature of the data set: Volume of distribution at steady state in IGS rat at 3 mg/kg, po administered as single dose. The class given is ADME, organism-based. The arrangement: dose 3 mg/kg, route oral. The note with it: in vivo.
The nature of data set [5]: Volume of distribution at steady state in Beagle Marshall dog at 1 mg/kg administered as single dose. The class given is ADME, organism-based, Canis lupus familiaris. More on the design: dose 1 mg/kg. The settings on record: in vivo, read-out: Vdss.
A short description of data set [6]: AUC (infinity) in IGS rat at 1 mg/kg, iv administered as single dose. More on the design: time infinity, dose 1 mg/kg, route intravenous. The note with it: plasma. The data set is classed as ADME, organism-based.
Data set [7] in a line: AUC (infinity) in Beagle Marshall dog at 1 mg/kg, po administered as single dose. The class given is ADME, organism-based, Canis lupus familiaris. More on the design: time infinity, dose 1 mg/kg, route oral. The settings on record: plasma.
For data set [8], the system named is Rattus norvegicus. Briefly: AUC (infinity) in IGS rat at 3 mg/kg, po administered as single dose. The data set is classed as ADME, organism-based, Plasma. More on the design: time infinity, dose 3 mg/kg, route oral. The settings on record: in vivo.
Data set [9] in a line: Cmax in Beagle Marshall dog at 1 mg/kg, po administered as single dose. The arrangement: dose 1 mg/kg, route oral. The data set is classed as ADME, organism-based, Canis lupus familiaris. The note with it: in vivo.
Data set [10] in a line: Cmax in IGS rat at 3 mg/kg, po administered as single dose. The data set is classed as ADME, organism-based. More on the design: dose 3 mg/kg, route oral. The settings on record: in vivo.
The nature of data set [11]: Cmax in rat at 300 mg/kg, po. The data set is classed as ADME, organism-based. More on the design: dose 300 mg/kg, route oral. The note with it: in vivo.

The term bioavailability denotes the share of a dose that reaches the circulation, judged against a reference dose that is usually intravenous. High values mean much systemic uptake, low ones little systemic uptake. For orientation: AUC(0-inf) means total exposure, with the tail of the curve extrapolated. A word on the AUC: it is concentration integrated over time. Read a high AUC as more exposure. A word on the Cmax: it is the maximum level reached in the sampled fluid or tissue.

`CN(C)CCn1c(CC(C)(C)C)nc2cc(S(=O)(=O)C3CN(C(N)=O)C3)ccc21`: in data set [1], the Papp worked out at 0.6 ×10⁻⁶ cm/s.
With `CN(C)CCn1c(CC(C)(C)C)nc2cc(S(=O)(=O)C3CN(C)C3)ccc21`, in data set [1], the Papp was 7.8 ×10⁻⁶ cm/s.
In the case of `CCN1CC(S(=O)(=O)c2ccc3c(c2)nc(CC(C)(C)C)n3CCN(C)C)C1`, the Papp in data set [1] amounted to 10 ×10⁻⁶ cm/s.
On to `CN(C)CCn1c(CC(C)(C)C)nc2cc(S(=O)(=O)C3CN(CC(F)(F)F)C3)ccc21`, for which, in data set [1], the Papp amounted to 18 ×10⁻⁶ cm/s.
As for `CN(C)CCn1c(CC(C)(C)C)nc2cc(S(=O)(=O)C3CN(CCO)C3)ccc21`, the bioavailability in data set [2] is 72%; in data set [3] it was 20%. In [4], this molecule registered a Vdss of 5696 mL/kg. In data set [5], the Vd was 5.69 L/kg. Moreover, the AUC(0-inf) in data set [6] was 391 ng·h/mL; in [7], 1000 ng·h/mL. The Papp in [1] amounted to 1.5 ×10⁻⁶ cm/s. The molecule also registered an AUC in data set [8] of 300 ng·h/mL. The Cmax stood at 102 ng/mL in data set [9], 38 ng/mL in data set [10] and 1800 ng/mL in [11].
Turning to `CN(C)CCn1c(CC(C)(C)C)nc2cc(S(=O)(=O)C3CN(S(C)(=O)=O)C3)ccc21`, the Papp in [1] was 5.9 ×10⁻⁶ cm/s.

The record behind these values is ChEMBL document CHEMBL3352700 (Bioorg Med Chem Lett, 2015).
